Measured values: the supplement of paper PMC10011410
± gives the standard deviation of the averaged measurements.

Key:
U-2 OS [1] = experiment: intracellular GSH:GSSG ratio (calculated); higher = more reduced glutathione pool; details: 24 h
Method: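 Intracellular glutathione in U-2 OS cells after 24 h compound treatment at 5, 10 and 20 uM (some at 40 and 80 uM). Total glutathione and GSSG were measured with the GSH/GSSG-Glo kit, and the GSH:GSSG ratio was calculated. Mean of five technical replicate plates.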

U-2 OS [2] = experiment: cell viability (CellTiter-Glo) relative to DMSO (% of control); higher = more viable; details: 24 h
Method: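 Cell viability of U-2 OS cells by CellTiter-Glo after 24 h compound treatment at 5, 10 and 20 uM (some at 40 and 80 uM), measured in parallel with the glutathione assay, as percent of DMSO control. Five technical replicate plates, averaged.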

U-2 OS [3] = experiment: total intracellular glutathione (GSH + GSSG) relative to DMSO (% of control); higher = more glutathione; details: 24 h
Method: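 Total intracellular glutathione (GSH + GSSG) in U-2 OS cells by GSH/GSSG-Glo after 24 h compound treatment at 5, 10 and 20 uM (some at 40 and 80 uM), as percent of DMSO control. Five technical replicate plates, averaged.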

U-2 OS [4] = experiment: cell painting activity score (Mahalanobis distance from DMSO wells); higher = stronger morphological phenotype; details: 24 h
Procedure, shortened: (§1)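 Cell painting used U-2 OS cells at about 1,500 per well in 384-well plates, treated by pin tool for 24 h at 37 °C, usually at six 2-fold concentrations from 20 μM to 625 nM. Cells were stained with MitoTracker, concanavalin A, phalloidin, wheat germ agglutinin, Hoechst and SYTO 14 and imaged on an Opera Phenix. Features were extracted with CellProfiler and normalized to DMSO cells on the same plate. The activity score is the Mahalanobis distance from DMSO wells; cell count is relative to DMSO wells. Values are means of four replicate plates.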

U-2 OS [5] = experiment: relative cell count vs DMSO (cell painting) (fraction of DMSO control); higher = more cells remaining (less cytotoxic); details: 24 h
Procedure, shortened: as §1

U-2 OS [6] = experiment: AUC of culture confluence over time (live-cell imaging) (AUC (confluence % x time)); higher = more confluent culture (less growth inhibition)
Procedure, shortened: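 Live-cell imaging tracked confluence of U-2 OS cells grown in F-12K medium plus 10% FBS. After seeding at 750 cells per well in 384-well plates, cells received compounds by pin tool 24 h later, mostly at 20, 10 and 5 μM, with 0.2% DMSO. Plates stayed at 37 °C and were imaged every 4 h for up to 60 h. Each value is the area under the confluence-versus-time curve.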

Compound	intracellular GSH:GSSG ratio (U-2 OS [1]; 5 µM)	intracellular GSH:GSSG ratio (U-2 OS [1]; 10 µM)	intracellular GSH:GSSG ratio (U-2 OS [1]; 20 µM)	cell viability (U-2 OS [2]; 5 µM)	cell viability (U-2 OS [2]; 10 µM)	cell viability (U-2 OS [2]; 20 µM)	total intracellular glutathione (U-2 OS [3]; 5 µM)	total intracellular glutathione (U-2 OS [3]; 10 µM)	total intracellular glutathione (U-2 OS [3]; 20 µM)	cell painting activity score (U-2 OS [4]; 0.625 µM)	cell painting activity score (U-2 OS [4]; 1.25 µM)	cell painting activity score (U-2 OS [4]; 2.5 µM)	cell painting activity score (U-2 OS [4]; 5 µM)	cell painting activity score (U-2 OS [4]; 10 µM)	cell painting activity score (U-2 OS [4]; 20 µM)	relative cell count (U-2 OS [5]; 0.625 µM)	relative cell count (U-2 OS [5]; 1.25 µM)	relative cell count (U-2 OS [5]; 2.5 µM)	relative cell count (U-2 OS [5]; 5 µM)	relative cell count (U-2 OS [5]; 10 µM)	relative cell count (U-2 OS [5]; 20 µM)	AUC of culture confluence over time (U-2 OS [6]; 5 µM)	AUC of culture confluence over time (U-2 OS [6]; 10 µM)	AUC of culture confluence over time (U-2 OS [6]; 20 µM)	AUC of culture confluence over time (U-2 OS [6]; 0.625 µM)	AUC of culture confluence over time (U-2 OS [6]; 1.25 µM)	AUC of culture confluence over time (U-2 OS [6]; 2.5 µM)
C=CC(=O)Nc1cc(Nc2nccc(-c3cn(C)c4ccccc34)n2)c(OC)cc1N(C)CCN(C)C	22.9	12.3	7.29	75.6 ± 3.2	55 ± 4	35 ± 2.5	86.9 ± 3.4	77.4 ± 3.5	50.4 ± 3.9	10.5	8.95	9.22	9.78	13.8	17.8	0.982	0.951	0.964	0.897	0.773	0.363	39	28.4	7			
COc1cc2c(c(OC)c1OC)-c1ccc(OC)c(=O)cc1[C@@H](NC(C)=O)CC2	3	2.46	2.47	49.1 ± 4	52.8 ± 6.9	57.8 ± 6.9	59.7 ± 3.7	58.1 ± 4.3	60.6 ± 3.2	22.4 ± 2.2	22 ± 1.8	20.7 ± 1.9	20.3 ± 2.4	21.3 ± 1.8	21 ± 1.7	0.215 ± 0.03	0.215 ± 0.021	0.213 ± 0.02	0.209 ± 0.021	0.205 ± 0.017	0.197 ± 0.018	20.1	19.7	22.8 ± 0.82	21.6	21.5	21
Cn1c(=O)n(-c2ccc(C(C)(C)C#N)cc2)c2c3cc(-c4cnc5ccccc5c4)ccc3ncc21	23.9	22.6	29.4	68.1 ± 3.9	62.4 ± 1.9	63.2 ± 3.4	71.3 ± 4.7	70.8 ± 2.6	68.2 ± 2.1	11.8	12.3	12.8	12.8	12.6	12.8	0.853	0.819	0.802	0.83	0.788	0.765	31.4	28.4	27.6			
CCOc1cc2ncc(C#N)c(Nc3ccc(OCc4ccccn4)c(Cl)c3)c2cc1NC(=O)/C=C/CN(C)C	11.7	10.4	8.69	71.7 ± 4.9	71 ± 3.7	73.1 ± 7.3	58.3 ± 2.8	61.3 ± 2.5	59.5 ± 3.7	6.66	11.4	14.6	10.9	9.93	13.4	0.995	0.842	0.811	0.76	0.778	0.757	33.1	34.1	21.3			
c1ccc(Nc2nc(-c3ccccc3)ns2)cc1	23.1	14.2	15.3	98.7 ± 3	95.3 ± 1.7	97.7 ± 4	104 ± 6.9	96.4 ± 2.9	98.2 ± 2.9	4.12	4.49	4.32	5.01	9.5	11.4	0.915	0.89	0.908	0.925	0.958	0.841	49.5	46.8	49.1			
COC[C@H]1OC(=O)c2coc3c2[C@@]1(C)C1=C(C3=O)[C@@H]2CCC(=O)[C@@]2(C)C[C@H]1OC(C)=O	26.3	27.5	21.8	83.6 ± 1.5	76 ± 2.8	69.3 ± 1.1	85.3 ± 3.2	82.6 ± 4	76.8 ± 3.8	7.82 ± 1.2	8.77 ± 1.2	8.96 ± 1.1	9.66 ± 1	10.4 ± 0.73	11.2 ± 0.66	0.905 ± 0.054	0.905 ± 0.038	0.882 ± 0.07	0.873 ± 0.059	0.837 ± 0.065	0.785 ± 0.058	49.5	38.5	28.4	57.9	56.1	56.6
C[C@H]1CCC/C=C/[C@@H]2C[C@H](O)C[C@H]2[C@H](O)/C=C/C(=O)O1	26.9	17.4	16.1	62.9 ± 3.7	64.5 ± 1.9	63.8 ± 3.9	54 ± 2.2	41.5 ± 18	45.2 ± 18	15.2	14.7	15.3	15.9	15.9	17.6	0.653	0.645	0.645	0.629	0.562	0.479	18.6	18.1	18.2			
O=C1CC(Nc2ccccc2)C(=O)N1Cc1ccccc1 (configuration not stated)		33.5	34.3	116 ± 4.3	106 ± 4.3	100 ± 4.4	92.2 ± 3.2	94.5 ± 4.7	102 ± 6.3	3.91	3.72	3.99	4.03	4.46	3.59	1.01	1.03	1.03	0.984	0.96	1.05	48	38.3	43.1			
